According to US20240049994A1, “ONE-TOUCH FINGERTIP SWEAT SENSOR AND PERSONALIZED DATA PROCESSING FOR RELIABLE PREDICTION OF BLOOD BIOMARKER CONCENTRATIONS” (THE REGENTS OF THE UNIVERSITY OF CALIFORNIA, priority 2021, published 2024):

Tests used:
tyrosinase enzyme = experiment: Selectivity of tyrosinase-modified L-Dopa sensor against C-Dopa; format: biochemical
Text: L-Dopa detection is achieved through coupling the tyrosinase enzyme-catalyzed L-Dopa oxidation (catecholase activity) and the subsequent electrochemical reduction of the corresponding quinone product, dopaquinone, at low potentials (FIG. 6A). The formed reaction cycle not only enhances the sensitivity through amplification of the resulting current signal but also prevents electrode fouling by inhibiting the spontaneous polymerization reactions of the unstable quinone molecules. Tyrosinase enzyme is simply immobilized on the surface of screen-printed carbon electrodes, followed by crosslinking with glutaraldehyde to prevent leaching of the enzyme (FIG. 6A). To establish the optimal potential for the L-Dopaquinone reduction, the amperometric signals obtained at various potentials, ranging from −0.1 to −0.4 V (vs. internal pseudo-reference Ag/AgCl), are compared upon addition of 10 μM L-Dopa. […] Thus, optimal potential of −0.3 V is chosen and used for subsequent in-vitro and on-body experiments. […] The reproducibility of the L-Dopa sensor is evaluated by measuring 10 μM L-Dopa concentration on six different electrodes sensors.
The performance of the sensor toward following the L-Dopa pharmacokinetics is characterized on healthy patients following the administration of L-Dopa/C-Dopa (100:25 mg) pills which are common oral medication for PD patients. […]

[1] = Touch-based fingertip sweat L-Dopa monitoring after L-Dopa/C-Dopa pill intake; format: in vivo, human; details: oral L-Dopa/C-Dopa (100:25 mg) pill
Text: The disclosed technology can be implemented in some embodiments to provide an individualized therapeutic drug monitoring for PD patients, centered on dynamic non-invasive tracking pharmacokinetic profiles of L-Dopa levels in the secreted sweat upon intake of standard pill formulations. Sweat is a non-invasively retrievable biofluid containing rich information of trace-level, health-related biochemical markers. Wearable sweat sensors have shown enormous potential toward monitoring of physiological heath status (e.g., hydration), disease diagnosis and management (e.g., diabetes and gout), and therapeutic drug monitoring (e.g., pain management). However, the presence of skin as a mechanical barrier prevents an uninterrupted access to this information-rich biofluid, and thus a triggering system (i.e., physical exercise, thermal stimulation, oriontophoresis) is necessary to provide continuous access to sweat sample. […] Taking advantage of the high density of eccrine sweat glands (˜400 glands cm^2) and the consequent generation of high sweat rates, finger touch-based biosensors have recently been reported for the detection of key sweat biomarkers (e.g., glucose, vitamin C, and cortisol). Leveraging such natural thermoregulatory sweat sample, a finger-touch L-Dopa biosensor based on some embodiments of the disclosed technology can continuously monitor the dynamic profile of sweat L-Dopa upon intake of standard anti-Parkinsonian medication including L-Dopa-carbidopa (100:25 mg) (FIG. 5A(a)). […]
To gain further insight into the personalized body responses upon medication intake, the performance of the finger touch biosensor is evaluated on three different individuals while taking the same medication under identically kept conditions (FIG. 7 (a)-(c)). […]

[2] = Pharmacokinetic correlation of fingertip sweat and capillary blood L-Dopa profiles; format: in vivo, human; details: healthy subjects, after L-Dopa/C-Dopa pill, measured every 10 min
Text: While the blood plasma is the ‘gold standard’ matrix for therapeutic monitoring of L-Dopa, this analysis method relies on LC-MS centralized instruments. To further confirm the reliability of the developed protocol based on touch-based sweat L-Dopa detection, the feasibility of data validation between sweat and blood samples is investigated. Two subjects performed fingertip sweat sensing in parallel to the electrochemical measurements of the finger pricked capillary blood samples, using the enzymatic L-Dopa sensor. As shown in FIG. 62 (A)-(B), the sweat sensor is able to probe and detect successfully L-Dopa fluctuations in microliter blood samples similar to the fingertip natural sweat sample. Similar temporal profiles are observed for blood and sweat experiments, with ˜10 min lag time. […] Additionally, control experiments are also carried out without pill intake (FIG. 62 (C)) and using non-enzymatic electrode (FIG. 62 (D)). In both control experiments, the current signal remained small and unchanged, which indicates the signal specificity of the fingertip touch-based sweat sensing procedure.

current relative to L-Dopa (tyrosinase enzyme; a quarter of the L-Dopa concentration (4:1 ratio as in the pill))	overall response relative to L-Dopa (tyrosinase enzyme; same concentration as L-Dopa, amperometry at -0.3 V)	time at which L-Dopa current signal starts to increase after pill intake ([1]; healthy subject)	time at which sweat L-Dopa signal decreases back to background level after pill intake ([1]; healthy subject)	time of peak maximum of sweat L-Dopa signal after pill intake ([1]; healthy subjects, measured every 10 min)	lag time between sweat and capillary blood L-Dopa temporal profiles [2]	Compound
~6%	~20%	–	–	–	–	C[C@@](Cc1ccc(O)c(O)c1)(NN)C(=O)O [C-Dopa, carbidopa]
–	–	10 min	one hour	30 min	~10 min	N[C@@H](Cc1ccc(O)c(O)c1)C(=O)O [L-Dopa, Levodopa]
